From ChEMBL document CHEMBL5108045, “Identification and Utilization of a Chemical Probe to Interrogate the Roles of PIKfyve in the Lifecycle of β-Coronaviruses” (J Med Chem, 2022)
The source made the active and inactive calls. No cut-off for these calls is given here.

What was measured:
[1] = (§1) Inhibition of His-6 tagged SARS-CoV-2 spike protein uptake in ACE2 overexpressing HEK293T cells at 1 uM incubated for 30 mins by DAPI staining based confocal microscopy analysis; format: functional; conditions: Homo sapiens, HEK-293T, 0.5 h
[2] = test system: HEK-293T; assay: as §1; format: functional; conditions: Homo sapiens

| SMILES | inhibition at 1 µM [1] [%] | inhibition [2] |
| --- | --- | --- |
| CC(C)(O)C#Cc1ccc2[nH]c3c(c2c1)-c1nc(N)ncc1CCC3 | < 10 |  |
| CN(C)CC#Cc1ccc2[nH]c3c(c2c1)-c1nc(N)ncc1CCC3 |  | Active |
| Cc1cccc(/C=N/Nc2cc(N3CCOCC3)nc(OCCc3ccccn3)n2)c1 |  | Active |
| Nc1ncc2c(n1)-c1c([nH]c3ccc(-c4ccc(F)cc4)cc13)CCC2 |  | Active |
